The record followed here is patent US4835163A, “N-alkoxyalkyl derivatives of quinolone carboxamides” (Sanofi, priority 1986, dated 1989).

The structures appear in SMILES notation.

A short description of data set [1]: locomotive activity, photoelectric cell actimeter. It counts as in vivo, mice (male CD1). The settings on record: 32 mg/kg O.R.; untreated mice 553 ± 200; P <0.05 (Student test). As for the experimental part:
The mice (male CD1 20-25 g) are placed in groups of three in the cages of a photoelectric cell actimeter. After 30 minutes of getting used to the enclosure, the animas are treated by oral route with the product under test in suspension in carboxymethylcellulose at 1%. A control set of untreated mice receive only the vehicle. Each set contains 12 groups of 3 mice. The movement activity responses are recorded for 80 minutes.

Data set [2] is described as follows: acute oral toxicity (LD 50). As to conditions: mouse, in vivo, mice. An excerpt:
The components of the invention benefit from a good tolerance and a weak toxicity. […] 1, in mice.

Data set [3] can be described thus: antagonist activity vis a vis the hypnotic effects of benzodiazepines. As to conditions: 25 mg/kg i.p., 15 minutes before diazepam 6 mg/kg i.p.; control 97 ± 12; * P < 0.05 vs control.
Data set [4] is described as follows: anticonvulsive activity, test with pentetrazol. The format is in vivo, mice (male CD1). As to conditions: Mus musculus, 0.5 h; oral route, 30 minutes before pentetrazol 135 mg/kg s.c.; dose which avoids attacks in half of the animals; read-out: DE50 (the source's name). As for the experimental part:
This activity has been studied by the test with pentetrazol, according to the method of EVERETT and RICHARDS (J. Pharm. Exp. Ther. 1944, 81, 402-407).
Thus the DE50 is determined, which is the dose which avoids the appearance of attacks in half of the animals. The DE 50 has been calculated by the method of D. K. Finney (Probit analysis; University Press; Cambridge; 1971).

Consider `CCCNC(=O)c1cn(COC)c2ccccc2c1=O` [derivative no. 1, 1-methoxymethyl-4-oxo-1,4-dihydro-quinoline 3-(N-propyl)carboxamide], for which, in data set [1], the “Movement Activity for 80 min” value is recorded as 1842 ± 470. Further, the LD50 – broadly, the dose expected to kill half of the subjects tested – in data set [2] turned out to be 1100 mg/kg. Further, in data set [3], the Length of sleep was 39 ± 20 min. Moreover, the ED50 in data set [4] was 55 mg/kg. With `CCNC(=O)c1cn(COC)c2ccccc2c1=O` [derivative no. 3, 1-methoxymethyl-4-oxo-1,4-dihydro-quinoline 3-(N-ethyl)carboxamide], the Length of sleep in data set [3] is 9 ± 4 min.

Regarding `COCn1cc(C(=O)NCC(C)C)c(=O)c2ccccc21` [derivative no. 5, 1-methoxymethyl-4-oxo-1,4-dihydro-quinoline 3-(N-isobutyl)carboxamide], the Length of sleep in data set [3] is 62 ± 10 min. Also, in data set [4], the ED50 turned out to be 46 mg/kg. The molecule `COCn1cc(C(=O)NC2CC2)c(=O)c2ccccc21` [derivative no. 7, 1-methoxymethyl-4-oxo-1,4-dihydro-quinoline 3-(N-cyclopropyl)carboxamide] showed a Length of sleep in data set [3] of 32 ± 11 min. Moreover, in data set [4], the ED50 is 67 mg/kg. In the case of `COCn1cc(C(=O)NC2CCCC2)c(=O)c2ccccc21` [derivative no. 8, 1-methoxymethyl-4-oxo-1,4-dihydro-quinoline 3-(N-cyclopentyl)carboxamide], in data set [4], the ED50 turned out to be 108 mg/kg. Consider `CCCNC(=O)c1cn(COC)c2ccc(F)cc2c1=O` [derivative no. 9, 1-methoxymethyl-4-oxo-6-fluoro-1,4-dihydro-quinoline 3-(N-propyl)carboxamide], for which, in data set [3], the Length of sleep amounted to 22 ± 8 min. Further, in data set [4], the ED50 came out at 62 mg/kg. Turning to `CCCNC(=O)c1cn(COC)c2c(F)cccc2c1=O` [derivative no. 10, 1-methoxymethyl-4-oxo-8-fluoro-1,4-dihydro-quinoline 3-(N-propyl)carboxamide], the ED50 in data set [4] came to 53 mg/kg. On to `CCCNC(=O)c1cn(COC)c2c(Cl)cccc2c1=O` [derivative no. 11, 1-methoxymethyl-4-oxo-8-chloro-1,4-dihydro-quinoline 3-(N-propyl)carboxamide], for which the ED50 in data set [4] came out at 21 mg/kg. `CCCNC(=O)c1cn(COC)c2ccc(OC)cc2c1=O` [derivative no. 12, 1-methoxymethyl-4-oxo-6-methoxy-1,4-dihydro-quinoline 3-(N-propyl)carboxamide]: the ED50 in data set [4] was 65 mg/kg.

As for `CCCNC(=O)c1cn(COCC)c2ccccc2c1=O` [derivative no. 13, 1-ethoxymethyl-4-oxo-1,4-dihydro-quinoline 3-(N-propyl)carboxamide], in data set [4], the ED50 is 75 mg/kg. For the molecule `CCCNC(=O)c1cn(CCOCC)c2ccccc2c1=O` [derivative no. 14, 1-ethoxyethyl-4-oxo-1,4-dihydro-quinoline 3-(N-propyl)carboxamide], the ED50 in data set [4] turned out to be 79 mg/kg. The same measure, in the same setting: the value for `CCCNC(=O)c1cn(CCOC)c2ccccc2c1=O` [derivative no. 15, 1-methoxyethyl-4-oxo-1,4-dihydro-quinoline 3-(N-propyl)carboxamide] was 50 mg/kg. With `CCC1(c2ccccc2)C(=O)NC(=O)NC1=O` [phenobarbital, reference compound], in data set [4], the ED50 was 10 mg/kg. Same read-out and setting: the value for `CCCC(CCC)C(=O)[O-].[Na+]` [sodium valproate, reference compound] was 200 mg/kg.
